The values that follow come from patent US20250243245A1 (priority 2022, published 2025).

Where a SMILES comes first, the peptide text is derived from it. Where only a bound is given, the exact number is not on record here.

The subject of the test is E. coli strain BL21. Particulars: BL21, 24 h.
The term MIC denotes the least concentration at which growth counts as inhibited. Read a low MIC as inhibition by little substance. `CC[C@H](C)[C@H](NC(=O)[C@H](CCCNC(=N)N)NC(=O)[C@H](CCCNC(=N)N)NC(=O)[C@H](CCC(N)=O)NC(=O)[C@H](Cc1c[nH]c2ccccc12)NC(=O)[C@H](Cc1ccccc1)NC(=O)CNC(=O)[C@@H]1CCCN1C(=O)[C@H](CO)NC(=O)CNC(=O)[C@H](Cc1ccc(O)cc1)NC(=O)[C@@H](NC(=O)[C@H](CO)NC(=O)CNC(=O)[C@H](Cc1ccc(O)cc1)NC(=O)[C@H](CO)NC(=O)CNC(=O)[C@H](CCCNC(=N)N)NC(=O)[C@H](Cc1c[nH]c2ccccc12)NC(=O)[C@H](Cc1c[nH]c2ccccc12)NC(=O)[C@H](CCCNC(=N)N)NC(=O)[C@H](Cc1c[nH]c2ccccc12)NC(=O)[C@H](Cc1c[nH]c2ccccc12)NC(=O)[C@H](CCCNC(=N)N)NC(=O)[C@@H](N)CCCNC(=N)N)C(C)C)C(=O)N[C@@H](CCCNC(=N)N)C(=O)N[C@@H](CCCNC(=N)N)C(=O)N[C@@H](Cc1c[nH]c2ccccc12)C(=O)N[C@@H](CCCNC(=N)N)C(=O)N[C@@H](CCCNC(=N)N)C(=O)O` [UGI-7] (H-RRWWRWWRGSYGSVYGSPGFWQRRIRRWRR-OH; N-terminus and C-terminus assumed) yielded an MIC of 5 to 10 mM.
For `CC(C)C[C@H](NC(=O)[C@H](CCCNC(=N)N)NC(=O)[C@H](CCCNC(=N)N)NC(=O)[C@H](CCC(N)=O)NC(=O)[C@H](Cc1c[nH]c2ccccc12)NC(=O)[C@H](CCC(N)=O)NC(=O)[C@H](Cc1ccccc1)NC(=O)[C@H](C)NC(=O)[C@H](CCC(=O)O)NC(=O)[C@@H]1CCCN1C(=O)[C@H](CC(C)C)NC(=O)[C@@H](N)CCCNC(=N)N)C(=O)N[C@@H](CCCNC(=N)N)C(=O)N[C@@H](CCCNC(=N)N)C(=O)N[C@@H](Cc1c[nH]c2ccccc12)C(=O)N[C@@H](CCCNC(=N)N)C(=O)N[C@@H](CCCNC(=N)N)C(=O)N1CCC[C@H]1C(=O)N[C@@H](CC(=O)O)C(=O)N[C@@H](CO)C(=O)N1CCC[C@H]1C(=O)NCC(=O)N[C@@H](CCCNC(=N)N)C(=O)N[C@@H](CCCNC(=N)N)C(=O)N[C@@H](Cc1c[nH]c2ccccc12)C(=O)N[C@@H](Cc1c[nH]c2ccccc12)C(=O)N[C@@H](CCCNC(=N)N)C(=O)N[C@@H](Cc1c[nH]c2ccccc12)C(=O)N[C@@H](Cc1c[nH]c2ccccc12)C(=O)N[C@@H](CCCNC(=N)N)C(=O)O` [UGK-5] (H-RLPEAFQWQRRLRRWRRPDSPGRRWWRWWR-OH; N-terminus and C-terminus assumed), the minimal inhibitory concentration (MIC) lay within 5 to 10 mM.
In the case of `CC[C@H](C)[C@H](NC(=O)[C@H](CCCCN)NC(=O)[C@H](CC(C)C)NC(=O)[C@@H](NC(=O)[C@H](CCCCN)NC(=O)[C@H](CCCCN)NC(=O)[C@@H](NC(=O)[C@H](CC(C)C)NC(=O)[C@H](CCCCN)NC(=O)[C@H](CCCCN)NC(=O)CNC(=O)[C@@H]1CCCN1C(=O)[C@H](CO)NC(=O)CNC(=O)[C@H](Cc1ccc(O)cc1)NC(=O)CNC(=O)[C@H](CO)NC(=O)CNC(=O)[C@H](CCCNC(=N)N)NC(=O)[C@H](CCCNC(=N)N)NC(=O)[C@H](Cc1c[nH]c2ccccc12)NC(=O)[C@H](CCCNC(=N)N)NC(=O)[C@H](CCCNC(=N)N)NC(=O)[C@@H](NC(=O)[C@H](CCCNC(=N)N)NC(=O)[C@H](CCCNC(=N)N)NC(=O)[C@H](CCC(N)=O)NC(=O)[C@H](Cc1c[nH]c2ccccc12)NC(=O)[C@@H](N)Cc1ccccc1)[C@@H](C)CC)[C@@H](C)CC)[C@@H](C)CC)C(=O)N[C@@H](CC(C)C)C(=O)O` [Peptide 30P-2] (H-FWQRRIRRWRRGSGYGSPGKKLIKKILKIL-OH; N-terminus and C-terminus assumed), the MIC lay in the range of 1.25 to 2.5 mM.
`CC[C@H](C)[C@H](N)C(=O)N[C@@H](CCC(=O)O)C(=O)N[C@@H](CCCNC(=N)N)C(=O)N[C@@H](CO)C(=O)N[C@H](C(=O)N[C@@H](CC(N)=O)C(=O)N[C@@H](CC(C)C)C(=O)N[C@@H](CC(=O)O)C(=O)N[C@@H](Cc1c[nH]c2ccccc12)C(=O)N[C@@H](Cc1ccc(O)cc1)C(=O)N[C@@H](CCCCN)C(=O)NCC(=O)N1CCC[C@H]1C(=O)N[C@H](C(=O)N[C@@H](CC(C)C)C(=O)N[C@@H](CC(C)C)C(=O)O)[C@@H](C)O)[C@@H](C)O` [Peptide 16P-1, reference compound] (H-IERSTNLDWYKGPTLL-OH; N-terminus and C-terminus assumed) had a minimal inhibitory concentration (MIC) above 20 mM.
As for `CC(C)C[C@H](NC(=O)[C@H](Cc1c[nH]cn1)NC(=O)[C@H](C)NC(=O)[C@H](CCCCN)NC(=O)[C@H](CO)NC(=O)CNC(=O)[C@H](CCC(=O)O)NC(=O)[C@H](CC(C)C)NC(=O)[C@H](CO)NC(=O)[C@H](CCCCN)NC(=O)[C@H](CC(C)C)NC(=O)[C@H](CCCCN)NC(=O)[C@H](CCC(N)=O)NC(=O)[C@H](CC(C)C)NC(=O)[C@H](CC(C)C)NC(=O)[C@H](CCC(=O)O)NC(=O)[C@H](CCC(=O)O)NC(=O)[C@@H]1CCCN1C(=O)[C@H](CCCNC(=N)N)NC(=O)[C@@H](N)CCCCN)C(=O)N[C@@H](CCC(N)=O)C(=O)N[C@@H](Cc1c[nH]cn1)C(=O)N[C@@H](Cc1c[nH]cn1)C(=O)N[C@@H](CC(=O)O)C(=O)N[C@@H](Cc1c[nH]c2ccccc12)C(=O)N[C@H](C(=O)N[C@@H](CO)C(=O)N[C@@H](CCCCN)C(=O)O)[C@@H](C)O` [UGK-41] (H-KRPEELLQKLKSLEGSKAHLQHHDWTSK-OH; N-terminus and C-terminus assumed), the MIC is above 20 mM.
Compound `CC[C@H](C)[C@H](NC(=O)[C@H](CCCCN)NC(=O)[C@H](CC(C)C)NC(=O)[C@@H](NC(=O)[C@H](CCCCN)NC(=O)[C@H](CCCNC(=N)N)NC(=O)[C@H](C)NC(=O)[C@@H]1CCCN1C(=O)[C@H](CCCCN)NC(=O)[C@@H](N)CCCNC(=N)N)C(C)C)C(=O)N[C@@H](CC(C)C)C(=O)NCC(=O)N[C@@H](CCCNC(=N)N)C(=O)NCC(=O)N[C@@H](CO)C(=O)N[C@@H](CCC(=O)O)C(=O)N[C@@H](Cc1ccccc1)C(=O)N[C@@H](Cc1c[nH]c2ccccc12)C(=O)N[C@@H](CCC(N)=O)C(=O)N[C@@H](CCCCN)C(=O)N[C@@H](CCCNC(=N)N)C(=O)N[C@H](C(=O)N[C@@H](CCCNC(=N)N)C(=O)N[C@@H](CCCNC(=N)N)C(=O)N[C@@H](Cc1c[nH]c2ccccc12)C(=O)N[C@@H](CCCNC(=N)N)C(=O)N[C@@H](CCCNC(=N)N)C(=O)O)C(C)C` [Peptide 27P-3] (H-RKPARKVLKILGRGSEFWQKRVRRWRR-OH; N-terminus and C-terminus assumed) showed a minimal inhibitory concentration (MIC) of 10 to 20 mM.
`CC[C@H](C)[C@H](NC(=O)[C@H](CCCNC(=N)N)NC(=O)[C@H](CCCNC(=N)N)NC(=O)[C@H](CCC(N)=O)NC(=O)[C@H](Cc1c[nH]c2ccccc12)NC(=O)[C@H](Cc1ccccc1)NC(=O)CNC(=O)[C@@H]1CCCN1C(=O)[C@H](CO)NC(=O)CNC(=O)[C@H](CCC(=O)O)NC(=O)[C@H](CC(C)C)NC(=O)[C@H](CO)NC(=O)[C@H](CCCCN)NC(=O)[C@H](CC(C)C)NC(=O)[C@@H](NC(=O)[C@H](CCC(=O)O)NC(=O)[C@H](CC(C)C)NC(=O)[C@H](CC(C)C)NC(=O)[C@H](CCCCN)NC(=O)[C@H](CCC(=O)O)NC(=O)[C@@H]1CCCN1C(=O)[C@H](CC(C)C)NC(=O)[C@H](CCCCN)NC(=O)[C@@H](N)CCCCN)[C@@H](C)CC)C(=O)N[C@@H](CCCNC(=N)N)C(=O)N[C@@H](CCCNC(=N)N)C(=O)N[C@@H](Cc1c[nH]c2ccccc12)C(=O)N[C@@H](CCCNC(=N)N)C(=O)N[C@@H](CCCNC(=N)N)C(=O)O` [UGK-25] (H-KKLPEKLLEILKSLEGSPGFWQRRIRRWRR-OH; N-terminus and C-terminus assumed) displayed an MIC of 2.5 to 5 mM.
The compound `N=C(N)NCCC[C@H](NC(=O)[C@H](Cc1c[nH]c2ccccc12)NC(=O)[C@H](Cc1c[nH]c2ccccc12)NC(=O)[C@H](CCCNC(=N)N)NC(=O)[C@H](Cc1c[nH]c2ccccc12)NC(=O)[C@H](Cc1c[nH]c2ccccc12)NC(=O)[C@H](CCCNC(=N)N)NC(=O)[C@@H](N)CCCNC(=N)N)C(=O)O` [Peptide 8P-1, reference compound] (H-RRWWRWWR-OH; N-terminus and C-terminus assumed) gave an MIC above 20 mM.
In the case of `CC[C@H](C)[C@H](N)C(=O)N[C@@H](CCC(=O)O)C(=O)N[C@@H](CCCNC(=N)N)C(=O)N[C@@H](CO)C(=O)N[C@@H](CCCNC(=N)N)C(=O)N[C@@H](CC(N)=O)C(=O)N[C@@H](CC(C)C)C(=O)N[C@@H](CC(=O)O)C(=O)N[C@@H](Cc1c[nH]c2ccccc12)C(=O)N[C@@H](Cc1ccc(O)cc1)C(=O)N[C@@H](CCCCN)C(=O)NCC(=O)N1CCC[C@H]1C(=O)N[C@H](C(=O)N[C@@H](CC(C)C)C(=O)N[C@@H](CC(C)C)C(=O)N[C@@H](CC(=O)O)C(=O)N[C@@H](C)C(=O)N[C@@H](CC(C)C)C(=O)N[C@@H](CCCCN)C(=O)N[C@@H](CC(N)=O)C(=O)N[C@@H](CC(C)C)C(=O)N[C@@H](CC(N)=O)C(=O)N[C@@H](CCC(=O)O)C(=O)NCC(=O)N[C@@H](CCCCN)C(=O)N[C@@H](CCCNC(=N)N)C(=O)O)[C@@H](C)O` [Peptide I27AB] (H-IERSRNLDWYKGPTLLDALKNLNEGKR-OH; N-terminus and C-terminus assumed), the MIC is above 20 mM.
For `CC(C)C[C@H](NC(=O)[C@H](CCC(N)=O)NC(=O)[C@H](CCC(=O)O)NC(=O)[C@H](CO)NC(=O)[C@H](CC(C)C)NC(=O)[C@H](CCCNC(=N)N)NC(=O)[C@@H]1CCCN1C(=O)[C@@H](N)CCCCN)C(=O)N[C@@H](CCC(N)=O)C(=O)N[C@@H](CCC(=O)O)C(=O)N[C@@H](CC(C)C)C(=O)N[C@H](C(=O)N[C@@H](CCCNC(=N)N)C(=O)N[C@@H](CCCNC(=N)N)C(=O)N[C@@H](CC(C)C)C(=O)N[C@@H](CC(C)C)C(=O)N[C@@H](CC(=O)O)C(=O)N[C@@H](CO)C(=O)N1CCC[C@H]1C(=O)N[C@@H](CC(C)C)C(=O)N[C@@H](CCC(=O)O)C(=O)N[C@@H](CCCNC(=N)N)C(=O)N[C@@H](CCCNC(=N)N)C(=O)N[C@@H](Cc1c[nH]c2ccccc12)C(=O)N[C@@H](Cc1c[nH]c2ccccc12)C(=O)N[C@@H](CCC(=O)O)C(=O)N[C@@H](Cc1c[nH]c2ccccc12)C(=O)N[C@@H](Cc1c[nH]c2ccccc12)C(=O)N[C@@H](CCCNC(=N)N)C(=O)N[C@@H](CCCNC(=N)N)C(=O)O)[C@@H](C)O` [UGK-33] (H-KPRLSEQLQELTRRLLDSPLERRWWEWWRR-OH; N-terminus and C-terminus assumed), the minimal inhibitory concentration (MIC) is above 20 mM.
